Legend:
[1] = molecular target: T1, IL-1 receptor on EL-4 membranes (Mus musculus, UniProt P13504); assay: IL-1 radioreceptor competition binding assay
T1 construct: incubated at varying concentrations with EL-4 membranes; endogenous in cells; host or cells: EL-4 cell membranes
T1 sequence (P13504 20-576): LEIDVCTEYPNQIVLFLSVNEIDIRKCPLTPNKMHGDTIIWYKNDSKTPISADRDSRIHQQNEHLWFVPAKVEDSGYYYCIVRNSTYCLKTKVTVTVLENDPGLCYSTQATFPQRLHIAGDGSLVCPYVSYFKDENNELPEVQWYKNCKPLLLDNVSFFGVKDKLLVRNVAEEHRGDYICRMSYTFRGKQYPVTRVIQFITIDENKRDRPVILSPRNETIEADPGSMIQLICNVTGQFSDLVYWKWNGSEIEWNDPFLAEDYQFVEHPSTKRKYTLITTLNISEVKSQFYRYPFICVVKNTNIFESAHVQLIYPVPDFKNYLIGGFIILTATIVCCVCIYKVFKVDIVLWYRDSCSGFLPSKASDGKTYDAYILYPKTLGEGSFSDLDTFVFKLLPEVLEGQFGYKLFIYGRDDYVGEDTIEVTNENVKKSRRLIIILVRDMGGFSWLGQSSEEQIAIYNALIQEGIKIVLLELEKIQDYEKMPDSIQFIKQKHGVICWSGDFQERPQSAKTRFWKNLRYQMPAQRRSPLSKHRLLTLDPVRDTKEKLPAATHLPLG
Protocol: Pegylated IL-1ra was purified from the reaction mixture using hydrophobic exchange chromatography (Bio-Rad; HRLC MP7 HlC). A linear gradient with decreasing salt concentrations from 0.43 to 0.0M (NH4)2 SO4 in 50 mM sodium phosphate pH 7.0 in 20 minutes was used to separate pegylated IL-1ra and unmodified IL-1ra. Aliquots of fractions were evaluated by SDS-PAGE and pooled fractions were assayed in an IL-1 radioreceptor competition binding assay. [Kilian et al. J. Immunol., 136, 4509, (1986)]. Briefly, IL-1ra and PEG-IL-1ra were incubated at varying concentrations with EL-4 membranes for 30 min at 37° C. The [^125 I]IL-1 alpha was then added and the incubation continued for 30 min. The assay was terminated by vacuum filtration and the collection of cell bound [^125 I]IL-1 on filter plates. The concentration of IL-1ra or PEG-IL-1ra that inhibits binding of [^125l]IL- 1 by 50% (IC50) was determined graphically. […] The pegylated IL-1ra mixture retained its ability-to bind to the IL-1 receptor on EL-4 membranes within a factor 2 to 3 fold relative to the unmodified II1-1ra.

D10 cell = D10 cell proliferation assay (specific activity of rIL-1 alpha); format: cell-based; conditions: for Specific Activity: label = apparent molecular weight (kD)
Protocol: Pegylated rIL-1 alpha was purified from the reaction mixture after 60 minutes using hydrophobic exchange chromatography (Bio-Rad; HRLC. MP7 HlC). A linear gradient with decreasing salt concentration from 0.43 to 0.0M (NH4)2 SO4 in 50 mM sodium phosphate pH 7.0 in 20 minutes was used to separate pegylated rIL-1 alpha and unmodified rIL-1 alpha. Aliquots of fractions were evaluated by SDS-PAGE and pooled fractions were assayed for specific activity in a D10 cell proliferation assays by the method described by Kaye et al. [J. Exp. Med. 158:836, (1983)]. Protein concentrations were determined spectrophotometrically at […] using an extinction coefficient of 1.0 for rIL-1 alpha. The specific activity of the rIL-1 alpha is approximately 1.0×10^8 units/mg. The 26 kD pegylated IL-1 alpha conjugate retains bioactivity within 2-3 fold of relative to IL-1 alpha.

CTLL cell = CTLL cell proliferation assay (specific activity of rIL-2); format: cell-based; conditions: Example 3, Table III: rIL-2 conjugated to PEG with reagent of Example 1; label = apparent molecular weight (kD)
Protocol: Acad. Sci., USA, 84:1483, (1987)] using hydrophic exchange chromatography (Bio-Rad; Biogel-phenyl 5-PW). […] Aliquots of the fractions were evaluated by SDS-PAGE and pooled fractions were assayed to determine its specific activity in a CTLL cell proliferation assay by the method described by Gillis et al. [J. Immunology 120:2027, (1978)].

MDBK = assay: Anti-viral activity (specific activity) in an MDBK assay; format: cell-based; conditions: label = apparent molecular weight (kD)
Protocol: The predominant molecular weight species from the reaction mixture were identified by SDS-PAGE with apparent molecular weights of 15 (unmodified),and 28 kD. The 28 kD pegylated protein accounted for 40% of the, total protein. The pegylated IFN-alpha was purified from the 60 minute reaction mixture and characterized using hydrophobic exchange chromatography (Bio-Rad; Biogel-phenyl-S-PW). A linear gradient with decreasing salt concentrations from 0.42M to 0.0M (NH4)2 SO4 in 50 mM sodium phosphate pH 7.0 in 20 minutes was used to separate pegylated IFN-alpha and unmodified IFN-alpha. Aliquots of the fractions were evaluated by SDS-PAGE and pooled fractions were assayed for anti-viral activity (specific activity) in an MDBK assay by the method described in by Familletti, et al. [Methods Enzym. 78,387 (1987)].
Protein concentrations were determined spectrophotometrically at […] using an extinction coefficient of 1.0 for a 1 mg/ml IFN-alpha buffered solution.

[2] = test system: rIL-1alpha induction of interleukin-6; assay: Inhibition of rIL-1alpha induction of interleukin-6 in mice (pharmacodynamics); format: in vivo
Protocol: The pharmacodynamics of IL-1ra protein was evaluated in vivo by the ability of the IL-1ra to inhibit rIL-1alpha induction of interleukin-6. Serum from mice treated with rIL-1alpha contain high levels of IL-6, [McIntosh et al., Immunol. 143: 162, (1989)]. The administration of unmodified IL-1ra together with IL-1alpha (0 hr time point) inhibits the induction of IL-6. This test system was used to compare the pharmacodynamic properties of unmodified and PEG IL-1ra. […] Three hours later, serum samples were collected. IL-6 levels (units) were determined using a modification of an IL-6 assay that has been previously described [Van Snick et al., Proc. Natl. Acad. Sci. USA 83:9679, (1986)]. In the IL.-6 assay, B9 hybridoma cells were treated with two fold serial dilutions of the test sera in 96-well microtiter plates. Following a 3 day incubation at 37° C. in a humidified atmosphere comprised of 5% CO2 and 95% air, the wells were pulsed with 0.5 uCi of tritiated thymidine and incubated for an additional 18 hr. The cells were then harvested onto glass fiber filters and the level of tritiated thymidine incorporation was determined by scintillation counting. IL-6 activity is expressed as U/ml. IL-6 units are defined as the inverse of the serum dilution which produces half-maximal tritiated thymidine incorporation compared to a reference standard.

[3] = Example 7, Table VIII: rIL-1 alpha conjugated with reagent of Example 5

## alpha-[2-[[(2-Pyridinyloxy)carbonyl]amino]ethyl]omega-[2-[[(2-pyridinyloxy)carbonyl]amino]-ethoxy]poly(oxy-1,2-ethanediyl) SRU 180 [Example 33]
[1]; Example 6A, Table VII: IL-1ra conjugated with reagent of Example 5a, label = apparent molecular weight (kD)
  IC50: 9.0 ng/mL
[1]; Example 12A, Table XIII: IL-1ra pegylated with reagent of Example 11a, label = apparent molecular weight (kD)
  IC50: 6.0 ng/mL
[1]; Example 19, Table XIV: IL-1ra pegylated with reagent of Example 18, label = apparent molecular weight (kD)
  IC50: 30.0 ng/mL
[1]; Example 19A, Table XV: IL-1ra pegylated with reagent of Example 18a, label = apparent molecular weight (kD)
  IC50: 9.0 ng/mL
[1]; Example 29, Table XX: IL-1ra pegylated with reagent of Example 28, label = molecular weight (kD)
  IC50: 5.0 ng/mL
D10 cell; [3]
  Specific Activity: 4.5 × 10^6 units/mg

## alpha-[(2-Pyridinyloxy)thiocarbonyl]-omega-methoxypoly (oxy-1,2-ethanediyl) SRU 225 [Example 28]
[1]; Example 12, Table XII: IL-1ra pegylated with reagent of Example 11, label = apparent molecular weight (kD)
  IC50: 3.0 ng/mL
CTLL cell
  Specific Activity: 2.4 × 10^7 units/mg
MDBK; Example 8, Table IX: IFN-alpha conjugated with reagent of Example 5
  Specific Activity: 1.4 × 10^8 units/mg
MDBK; Example 20, Table XVI: IFN-alpha conjugated with reagent of Example 18
  Specific Activity: 8.0 × 10^7 units/mg

## rIL-1 alpha: Recombinant Interleukin 1-alpha, unmodified; apparent molecular weight 17 kD by SDS-PAGE
D10 cell; [3]
  Specific Activity: 4.6 × 10^7 units/mg
D10 cell; Example 27, Table XIX: rIL-1 alpha conjugated to PEG with reagent of Example 23
  Specific Activity: 1.1 × 10^8 units/mg
D10 cell; general statement, Example 7
  specific activity of the rIL-1 alpha: approximately 1.0×10^8 units/mg
[2]; Example 6 experiment, 0.2 ug rIL-1 alpha, serum three hours later
  IL-6 in mice treated only with IL-1: 28852 U/ml
[2]; Example 12 experiment
  IL-6 induced by IL-1 alone: 27283 u/ml
[2]; Example 19A experiment, 0.05 ug rIL-1 alpha
  IL-6 response to IL-1 alone: 9203 units/ml

B1: 26 kD rIL-1 alpha (Example 7): rIL-1 alpha pegylated with the reagent of Example 5; apparent molecular weight 26 kD (conjugate, UniProt P01583 113-271, looked up)
Interleukin-1 alpha: SAPFSFLSNVKYNFMRIIKYEFILNDALNQSIIRANDQYLTAAALHNLDEAVKFDMGAYKSSKDDAKITVILRISKTQLYVTAQDEDQPVLLKEMPEIPKTITGSETNLLFFWETHGTKNYFTSVAHPNLFIATKQDYWVCLAGGPPSITDFQILENQA
modifications: PEG conjugate
notes: apparent molecular weight 26 kD
D10 cell; Example 7
  bioactivity relative to IL-1 alpha: 2-3 fold

B2: 33 kD rIL-1 alpha (Example 7): rIL-1 alpha pegylated with the reagent of Example 5; apparent molecular weight 33 kD (conjugate, UniProt P01583 113-271, looked up)
Interleukin-1 alpha: B1 Interleukin-1 alpha
modifications: PEG conjugate
notes: apparent molecular weight 33 kD
D10 cell; Example 7
  bioactivity relative to IL-1 alpha: substantial loss of bioactivity
